{"source": "patent US12263155B2", "about": "“Combinations of monoamine oxidase inhibitors and serotonin receptor agonists and their therapeutic use” (Remedi, Inc., priority 2022, dated 2025)", "method": "Methods: The trial was a Phase 1, single center, double-blind, placebo-controlled, sequential group, acute dose escalation study of the safety and pharmacokinetics of seven (7) CX157 dose levels in healthy male volunteers. Each of the seven (7) dose groups consisted of six (6) subjects, with the exception of cohort 2 (CX157 10 mg or placebo) which enrolled only five (5) subjects. Within each dose group, four (4) subjects were randomized to CX157 and two (2) subjects to placebo. Subjects were normal healthy volunteers confined to the study center for approximately 4 days, beginning approximately 16 hours before exposure to study drug and ending approximately 48 hours after exposure to study drug. Safety and tolerability was assessed for each dose group by the Principal Investigator before advancing to the next scheduled dose group. CX157 was administered as a fully solubilized microemulsion in Labrasol™", "data": [{"smiles": "O=S1(=O)c2ccc(F)cc2Oc2cc(OCC(F)(F)F)ccc21", "note": "[CX157, 3-fluoro-7(2,2,2-trifluorethoxy)phenoxathiine-10,10-dioxide]", "values": [{"measurement": "percent of subjects experiencing adverse events", "setting": "all CX157 groups, single doses", "value": 89, "unit": "%"}, {"measurement": "safety and tolerability", "setting": "healthy volunteers, single dose escalation", "value": "safe and well tolerated"}]}]}
